# Measurements as given in patent publication US9649295B2, “Chemical inhibitors of soluble adenylyl cyclase (sAC)” (Cornell Research Foundation, Inc., priority 2004, dated 2017).
# “Also recorded” adds a separate entry of the source.
# Columns and labels:
# [1] = target: T1, purified solubilized version of Type VII tmAC (sol.AC7) (Homo sapiens, UniProt P51828); experiment: in vitro cyclase activity of purified solubilized Type VII tmAC; type: biochemical; conditions: read-out: in vitro IC50 pure sol.AC7
# T1 construct: a mixture of purified catalytic domains, C1 and C2, from Type VII tmAC; made in house
# T1 sequence (P51828 279-406 limits assumed): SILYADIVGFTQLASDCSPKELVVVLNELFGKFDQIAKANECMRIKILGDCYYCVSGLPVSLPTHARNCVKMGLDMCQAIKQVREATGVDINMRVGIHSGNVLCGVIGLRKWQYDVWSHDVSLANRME
# T1 sequence (P51828 879-1023 limits assumed): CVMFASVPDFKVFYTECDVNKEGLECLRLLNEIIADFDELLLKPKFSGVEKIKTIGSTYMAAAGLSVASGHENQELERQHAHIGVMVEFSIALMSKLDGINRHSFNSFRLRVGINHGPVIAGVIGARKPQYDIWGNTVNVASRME
# [2] = toxicity observation and post-mortem analysis in mice; type: in vivo, mouse; conditions: single injection
# PfAC = experiment: adenylyl cyclase activity in whole cell extract of isolated parasites; type: biochemical, Plasmodium falciparum; conditions: MnCl2 and ATP
# [3] = target: catalytic portion of the sAC-like adenylyl cyclase from Candida albicans (fragment JR3) (Candida albicans, UniProt A0A1D8PR83); experiment: biochemical
# catalytic portion of the sAC-like adenylyl cyclase from Candida albicans (fragment JR3), sequence (A0A1D8PR83 entry or part of it): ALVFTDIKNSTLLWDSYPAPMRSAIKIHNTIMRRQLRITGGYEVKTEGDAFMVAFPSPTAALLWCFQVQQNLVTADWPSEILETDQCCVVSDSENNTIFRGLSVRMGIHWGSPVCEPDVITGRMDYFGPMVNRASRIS
# From the text: (§1) . FIG. 17A illustrates the bicarbonate dependence of the JR3 fragment; […];
# Candida albicans = experiment: CO2 induced differentiation of Candida albicans into the filamentous stage; type: cell-based; conditions: similar dose dependency as on JR3
# From the text: as §1
# Rap1 activation = experiment: NGF induced Rap1 activation in PC12 cells; type: cell-based; conditions: 15 minutes, KH7 50 μM
# Experimental: FIG. 18 illustrates that NGF induced Rap1 activation is blocked by KH7 and rescued by membrane permeable cAMP. PC12 cells were stimulated with or without nerve growth factor (NGF) for 15 minutes in the presence or absence of KH7 (50 μM) and 1 mM 8Br-cAMP.
smiles,measurement,setting,value
CC(Sc1nc2ccccc2[nH]1)C(=O)N/N=C/c1cc(Br)ccc1O (centres unmarked) [KH7],IC50,[1],> 55 µM
same,behavior or stressful responses to injection,[2],did not elicit any behavior or stressful responses inconsistent with a simple saline injection
same,toxicity to mice,[2],did not appear to be toxic
same,"anatomical, histological, and blood post-mortem analysis",[2]; within 48 hours after drug treatment,no significant toxicology or histological pathology
same,dose response for inhibiting PfAC activity versus killing parasites,PfAC,equal dose responses at killing parasites and at inhibiting PfAC activity
same,IC50,[3],~23 µM
same,"effect on CO2 induced differentiation into the filamentous, infectious stage",Candida albicans,dose dependently inhibited
same,effect on NGF induced Rap1 activation,Rap1 activation,block NGF induced Rap1 activation; also recorded: blocked
